# Measurements as given in patent US11452731B2, “Method of treating and preventing loss of cognition” (ENDORECHERCHE, INC., priority 2009, dated 2022).
# Experiment: Clinical trial ERC-205: DHEA 50 mg daily versus placebo on hot flushes in postmenopausal women (Example 10)
# Type: in vivo
# Details: 50 mg
# Description: Postmenopausal women experiencing moderate or severe hot flushes per week (as determined by a two week diary) were randomized to receive a daily dose of either placebo or 50 mg DHEA. Fifty evaluable participants (25 patients per arm) were treated for four months with a daily assessment of hot flushes recorded in a diary completed by each participant.
# Postmenopausal women aged 40 to 70 years with moderate or severe hot flushes per week, as confirmed by a two-week screening hot flush diary were enrolled after signing informed consent. The protocol was approved by the Institutional Review Board (IRB) of Le Centre Hospitalier de l'Université Laval and by Health Canada.
# The primary endpoint was the change from Baseline in the weekly frequency of moderate to severe hot flushes at Week 16, after four months of treatment. The objectives also included the change from Baseline in the weekly frequency of all hot flushes and the change from Baseline in the weekly weighted severity score.
# The response endpoint is the patient's paper diary which was filled in daily to specify the number and type of hot flushes as follows:
# The hot flush diary began as a Screening diary for two weeks prior to randomization whereby patients had to complete the diary daily, recording the number and severity of hot flushes. The patients had to record an average of 50 or more moderate or severe hot flushes per week over the two-week period to be eligible (i.e., at least 100 hot flushes documented on the two week Screening diary).
# Once randomized, the patient completed eight, two-week hot flush diaries upon beginning study medication. The diaries had to be filled out on a daily basis. The first diary was completed over the first two weeks and be returned on the two week visit. The second two-week diary was completed over the next two weeks of the first four week treatment period and was returned at the four week visit. At 4, 8, 12 and 16 week visits, two two-week diaries for hot flushes were collected.
# [1] = strata 50 to 70 hot flushes per week at screening, Week 16
# [2] = strata ≥71 hot flushes per week at screening, Screening (mean of 2 w), baseline
# [3] = strata ≥71 hot flushes per week at screening, Week 1
# [4] = strata ≥71 hot flushes per week at screening, Week 2
# [5] = strata ≥71 hot flushes per week at screening, Week 3
# [6] = strata ≥71 hot flushes per week at screening, Week 4
# [7] = strata ≥71 hot flushes per week at screening, Week 5
# [8] = strata ≥71 hot flushes per week at screening, Week 6
# [9] = strata ≥71 hot flushes per week at screening, Week 7
# [10] = strata ≥71 hot flushes per week at screening, Week 8
# [11] = strata ≥71 hot flushes per week at screening, Week 9
# [12] = strata ≥71 hot flushes per week at screening, Week 10
# [13] = strata ≥71 hot flushes per week at screening, Week 11
# [14] = strata ≥71 hot flushes per week at screening, Week 12
# [15] = strata ≥71 hot flushes per week at screening, Week 13
compound,measurement,setting,value
"C[C@]12CC[C@H](O)CC1=CC[C@@H]1[C@@H]2CC[C@]2(C)C(=O)CC[C@@H]12 [DHEA, dehydroepiandrosterone]",WEIGHTED SEVERITY SCORE OF HOT FLUSHES PER WEEK (MEAN),"strata 50 to 70 hot flushes per week at screening, Week 15",83.7
same,NUMBER OF ALL HOT FLUSHES PER WEEK (MEAN),[1],35.7
same,NUMBER OF MODERATE TO SEVERE HOT FLUSHES PER WEEK (MEAN),[1],32.7
same,WEIGHTED SEVERITY SCORE OF HOT FLUSHES PER WEEK (MEAN),[1],81.6
same,NUMBER OF ALL HOT FLUSHES PER WEEK (MEAN),[2],91.0
same,NUMBER OF MODERATE TO SEVERE HOT FLUSHES PER WEEK (MEAN),[2],88.5
same,WEIGHTED SEVERITY SCORE OF HOT FLUSHES PER WEEK (MEAN),[2],241.6
same,NUMBER OF ALL HOT FLUSHES PER WEEK (MEAN),[3],68.6
same,NUMBER OF MODERATE TO SEVERE HOT FLUSHES PER WEEK (MEAN),[3],64.1
same,WEIGHTED SEVERITY SCORE OF HOT FLUSHES PER WEEK (MEAN),[3],175.2
same,NUMBER OF ALL HOT FLUSHES PER WEEK (MEAN),[4],57.9
same,NUMBER OF MODERATE TO SEVERE HOT FLUSHES PER WEEK (MEAN),[4],53.5
same,WEIGHTED SEVERITY SCORE OF HOT FLUSHES PER WEEK (MEAN),[4],150.8
same,NUMBER OF ALL HOT FLUSHES PER WEEK (MEAN),[5],57.5
same,NUMBER OF MODERATE TO SEVERE HOT FLUSHES PER WEEK (MEAN),[5],52.5
same,WEIGHTED SEVERITY SCORE OF HOT FLUSHES PER WEEK (MEAN),[5],149.8
same,NUMBER OF ALL HOT FLUSHES PER WEEK (MEAN),[6],62.7
same,NUMBER OF MODERATE TO SEVERE HOT FLUSHES PER WEEK (MEAN),[6],57.8
same,WEIGHTED SEVERITY SCORE OF HOT FLUSHES PER WEEK (MEAN),[6],166.5
same,NUMBER OF ALL HOT FLUSHES PER WEEK (MEAN),[7],60.0
same,NUMBER OF MODERATE TO SEVERE HOT FLUSHES PER WEEK (MEAN),[7],53.2
same,WEIGHTED SEVERITY SCORE OF HOT FLUSHES PER WEEK (MEAN),[7],154.1
same,NUMBER OF ALL HOT FLUSHES PER WEEK (MEAN),[8],53.9
same,NUMBER OF MODERATE TO SEVERE HOT FLUSHES PER WEEK (MEAN),[8],47.6
same,WEIGHTED SEVERITY SCORE OF HOT FLUSHES PER WEEK (MEAN),[8],138.7
same,NUMBER OF ALL HOT FLUSHES PER WEEK (MEAN),[9],52.2
same,NUMBER OF MODERATE TO SEVERE HOT FLUSHES PER WEEK (MEAN),[9],46.7
same,WEIGHTED SEVERITY SCORE OF HOT FLUSHES PER WEEK (MEAN),[9],137.2
same,NUMBER OF ALL HOT FLUSHES PER WEEK (MEAN),[10],48.9
same,NUMBER OF MODERATE TO SEVERE HOT FLUSHES PER WEEK (MEAN),[10],43.3
same,WEIGHTED SEVERITY SCORE OF HOT FLUSHES PER WEEK (MEAN),[10],129.0
same,NUMBER OF ALL HOT FLUSHES PER WEEK (MEAN),[11],47.0
same,NUMBER OF MODERATE TO SEVERE HOT FLUSHES PER WEEK (MEAN),[11],41.1
same,WEIGHTED SEVERITY SCORE OF HOT FLUSHES PER WEEK (MEAN),[11],121.8
same,NUMBER OF ALL HOT FLUSHES PER WEEK (MEAN),[12],46.9
same,NUMBER OF MODERATE TO SEVERE HOT FLUSHES PER WEEK (MEAN),[12],41.6
same,WEIGHTED SEVERITY SCORE OF HOT FLUSHES PER WEEK (MEAN),[12],121.6
same,NUMBER OF ALL HOT FLUSHES PER WEEK (MEAN),[13],42.8
same,NUMBER OF MODERATE TO SEVERE HOT FLUSHES PER WEEK (MEAN),[13],36.4
same,WEIGHTED SEVERITY SCORE OF HOT FLUSHES PER WEEK (MEAN),[13],110.2
same,NUMBER OF ALL HOT FLUSHES PER WEEK (MEAN),[14],39.3
same,NUMBER OF MODERATE TO SEVERE HOT FLUSHES PER WEEK (MEAN),[14],33.1
same,WEIGHTED SEVERITY SCORE OF HOT FLUSHES PER WEEK (MEAN),[14],98.7
same,NUMBER OF ALL HOT FLUSHES PER WEEK (MEAN),[15],39.3
same,NUMBER OF MODERATE TO SEVERE HOT FLUSHES PER WEEK (MEAN),[15],33.9
same,WEIGHTED SEVERITY SCORE OF HOT FLUSHES PER WEEK (MEAN),[15],102.8
same,NUMBER OF ALL HOT FLUSHES PER WEEK (MEAN),"strata ≥71 hot flushes per week at screening, Week 14",37.3
